Measurements from US12006343B2, “C4BP-based compounds for treating immunological diseases” (FUNDACIO INSTITUT D'INVESTIGACIO BIOMEDICA DE BELLVITGE …, priority 2017, dated 2024).

Assays:
[1] = tested on: human monocyte-derived DCs; assay: Immunomodulatory activity over human monocyte-derived DCs: CD83/CD86 surface expression by flow cytometry after LPS maturation; type: cell-based; settings: Example 1
Protocol: In Vitro Functional Assessment of the Immunomodulatory Activity of Full-Length C4BP(β−) and C4BP(β−) Variants Over DCs
The inventors used for the in vitro study both C4BP(β+) (WT) and recombinant C4BP(β−) isoforms, and the above-referred mutants or variants: Mutant 1 and Mutant 2. C4BP(β+) isoforms refer to the major C4BP α7β1 plus the minor C4BP α6β1 isoforms (both in complex with ProS) purified from pooled human plasma.
RPMI 1640 was supplemented with 100 μg/ml of streptomycin, 100 IU/ml of penicillin, 2 mM L-glutamine (all from Invitrogen, Carlsbad, CA) and 10% heat-inactivated fetal bovine serum (Linus, Cultek, Spain) (complete medium), unless otherwise stated.
Peripheral blood mononuclear cells (PBMCs) were obtained from buffy coat preparations collected from healthy donors from the Blood and Tissue Bank (Barcelona, Spain) after Ficoll-Paque™ density centrifugation (GE Healthcare Bio-Sciences AB; Uppsala, Sweden). For surface phenotype determination, monocytes were plated at 1×10^6 cells/ml in 60 mm culture plates (Corning, Spain), in RPMI 1640 medium without serum, and allowed to adhere for 2 h at 37° C. in 5% CO2. The non-adherent cells were removed by washing in PBS.
Monocyte-derived DCs were generated supplementing the monocyte cultures with complete RPMI 1640 medium plus GM-CSF (800 UI/ml) and IL-4 (500 UI/ml) (both from Gentaur, Kampenhout, Belgium) at day 0 and day 3 of culture. For DC maturation, at day 5 iDCs were further stimulated for 48 h with 5 μg/ml LPS (Escherichia coli 055.B5, Sigma L2880, Copenhagen, Denmark).
Staining using the fluorescent dye 7-amino-actinomycin D (7-AAD) (BD Pharmigen) and flow cytometry analysis was employed to assess the viability status of C4BP-treated and untreated DCs.
Cell surface phenotypes were analyzed by flow cytometry using the following mAbs: FITC-conjugated anti-CD83 (HB15a) and PE-conjugated anti-CD86 (HA5.2B7) (all from Beckman-Coulter). The respective isotype controls FITC-conjugated anti-IgG2b (H2) and PE-conjugated anti-IgG2b (H2), were from the same commercial sources. After washing with PBS, cells were subsequently stained with 3 μl mAb/10^5 cells in 100 μl of FACS buffer (PBS containing 1% BSA and 0.1% sodium azide) for 20 min at room temperature. To exclude dead cells and debris, DCs were gated according to forward scatter (FSC) and side scatter (SSC) parameters. Stained cells were analyzed using a FACSCalibur (Becton Dickinson, Franklin Lakes, NJ) equipped with CellQuestPro software (Becton Dickinson).
In Vitro Functional Assessment of C4BP(β−) Immunomodulatory Activity Over DCs
The inventors used for the in vitro study both C4BP(+) and C4BP(β−) isoforms. C4BP(3+) isoforms refer to the major C4BP α7β1 plus the minor C4BP α6β1 isoforms (both in complex with ProS) purified from pooled human plasma, as previously described (Dahlbäck B. 1983. Biochem J., 209:847-56).

[2] = tested on: Balb/c male mice, CAIA model; type: in vivo, mouse; settings: for ankle thickness: C4BP(β−) 50 μg sc d3 and d5, dexamethasone 1 mg/kg po d5-11, Enbrel 30 mg/kg sc d5-11; for body weight vs CAIA control group: mouse, in vivo
Source text: Collagen-antibody induced arthritis (CAIA) is a simple mouse model of human rheumatoid arthritis (RA) induced by the systemic administration of a cocktail of monoclonal antibodies directed against conserved auto-antigenic collagen type II epitopes, followed by a single injection of lipopolysaccharide (LPS). CAIA is a useful model to study the effector inflammatory phase of arthritis without involving the priming phase of the immune response. The murine CAIA model shares several clinical, immunological and pathological features with RA. Therefore, this model is useful to study the pathogenic mechanisms involved in RA disease as well as for testing new therapies.
Balb/c male mice aged 7-8 weeks were supplied by Envigo. The animals were acclimated during 12 days. The animals were maintained in an environmentally controlled room with ventilation, temperature (22±2° C.), relative humidity (35-65%), and cycle light/dark (12 h/12 h). The animals were housed in groups of 3-5 animals/cage. The maintenance diet was supplied by Harlan Interfauna Ibérica, S. L. (“2014 Harlan Teklad Global Diets”) and they were feed diet and water ad libitum.
Plasmatic C4BP(β−) was supplied at a concentration of 6.2 mg/ml. C4BP(β−) solutions were prepared to the desired concentration 0.33 mg/ml (for 50 μg doses) by dilution with Dulbecco's phosphate-buffered saline (DPBS) of C4BP(β−) 6.2 mg/ml stock solution.
Two reference compounds were used: dexamethasone (Sigma, Ref. D1756) and Enbrel® (etanercept) (Pfizer, Ref. 655950).
Reference compound dexamethasone was dissolved in vehicle (0.1% Tween-80+99% carboxymethyl cellulose (CMC) (0.5% w/v) in water at a concentration of 0.1 mg/ml.
Enbrel® was prepared at 6 mg/ml in DPBS by dilution of 50 mg/mL stock solution.
Experimental Procedure Day 0: Arthritis Induction
On day 0, animals for experimental group C4BPd3 were randomly selected (n=8) and identified using tail code numbers and weighted.
Each mouse was sensitized by the administration of 2 mg anti-type II collagen antibodies cocktail (ArthritoMAB™ cocktail solution, 0.2 mL, i.v., day 0) in the caudal vein.
Day 3: LPS Synchronization
Animals were intraperitoneally administered with 0.1 mL of LPS solution (0.7 mg/ml, 70 μg/animal).
50 μg of C4BP(β−) were administered subcutaneously at day 3 to treatment group C4BPd3.
50 μg of C4BP(β−) were administered subcutaneously at day 5 to treatment group C4BPd3.
Day 5: Animal Distribution
On day 5 after sensitization, the rest of the animals developing clinical signs of arthritis (n=18) were evaluated and distributed in base of CAIA+incidence. Animals were homogeneously randomized (arthritis score) into the CAIA control group, dexamethasone (1 mg/kg at days 5-11, p.o.) and Enbrel®-treated groups (30 mg/kg at days 5-11, s.c.) (n=6). Animals were identified using tail code numbers and weighted.
Group 2 was not included in the distribution because of the previous test item administration.
The arthritis score was determined using the criteria of Table 9.
Treatment: • C4BPd3 group: 50 μg of C4BP(β−) were subcutaneously injected to animals on days 3 and 5. Volume: 0.150 mL. • Reference compound treatments and CAIA control groups (days 5-11): • Enbrel®: 30 mg/kg of Enbrel® was subcutaneously administered to Enbrel group from days 5 to 11. Volume: 5 mL/kg. • Dexamethasone: 1 mg/kg dexamethasone was orally administered to dexamethasone group from days 5 to 11. Volume: 10 mL/kg. • CAIA control group: 0.150 mL of DPBS was subcutaneously administered from days 5 to 11. Arthritis Monitoring:
Body weights were registered daily from days 0-12 in C4BPd3 and from days 5-12 in CAIA control, dexamethasone and Enbrel® groups. Arthritis scores were determined by the same observer in order to avoid observer bias.
The study was finished at day 12.
Animals were anesthetized with isoflurane. Ankles and wrists thickness were measured using a dial thickness gauge. Serum samples were collected and stored at −20° C. […]

Row | Molecule | immunomodulatory activity over DCs [1] | inhibition of arthritis score vs. CAIA controls AUC ([2]; C4BP(β−) 50 μg sc days 3 and 5, dexamethasone 1 mg/kg po days 5-11) [%] | ankle thickness ([2]; day 12) [mm] | body weight vs CAIA control group [2] | inhibition of arthritis score vs. CAIA controls d12 ([2]; Enbrel 30 mg/kg sc days 5-11) [%] | wrist thickness vs. CAIA control ([2]; day 12, regimens as Table 8) | arthritis scores / progression of arthritis ([2]; regimens as Table 8, vs CAIA control group)
1 | C4BP(CCP5-CCP8)(α7β0) [Mutant 1] | retains the immunomodulatory activity over DCs | – | – | – | – | – | –
2 | C[C@@H]1C[C@H]2[C@@H]3CCC4=CC(=O)C=C[C@]4(C)[C@@]3(F)[C@@H](O)C[C@]2(C)[C@@]1(O)C(=O)CO [dexamethasone] | – | 73 | 2.63±0.05 | No remarkable differences | – | – | –
3 | etanercept [Enbrel] | – | – | 2.73±0.04 | No remarkable differences | 47 | No changes | progressive reduction of arthritis scores over time
